Laboratory results taken from ChEMBL document CHEMBL1641552 (Bioorg Med Chem Lett, 2011).

biological target: T1, Neuraminidase (Influenza A virus, UniProt B4URF0); assay: Inhibition of Influenza A H1N1 virus neuraminidase activity after 2 hrs by spectrofluorometry

Compound	IC50 [µM]
COc1c(/C=C/C(=O)c2ccc(O)c(CC=C(C)C)c2)ccc(O)c1O [LICOCHALCONE D]	80.8
C=CC(C)(C)c1cc(/C=C/C(=O)c2ccc(O)cc2)c(OC)cc1O [LICOAGROCHACONE A]	56.4
COc1cc(O)ccc1/C=C/C(=O)c1ccc(O)cc1 [ECHINATIN]	21.5
CC(C)=CCc1cc(/C=C/C(=O)c2ccc(O)cc2O)ccc1O [LICOAGROCHALCONE A]	159
CC(C)=CCc1cc(/C=C/C(=O)c2ccc(O)cc2O)cc(O)c1O [5'-PRENYLBUTEIN]	76
CC(C)=CCc1cc(/C=C/C(=O)c2ccc(O)c(CC=C(C)C)c2O)ccc1O [KANZONOL C]	192
C=CC(C)(C)c1cc(/C=C/C(=O)c2ccc(O)cc2O)c(OC)cc1O [LICOCHALCONE G]	106

biological target: T1, Neuraminidase; type: cell-based, H1N1 swine influenza virus, HEK-293T

Compound	IC50 [µM]
C=CC(C)(C)c1cc(/C=C/C(=O)c2ccc(O)cc2)c(OC)cc1O [LICOAGROCHACONE A]	16
COc1cc(O)ccc1/C=C/C(=O)c1ccc(O)cc1 [ECHINATIN]	9.21

biological target: T1, Neuraminidase; assay: Inhibition of Influenza A H9N2 virus neuraminidase activity after 2 hrs by spectrofluorometry

Compound	IC50 [µM]
COc1c(/C=C/C(=O)c2ccc(O)c(CC=C(C)C)c2)ccc(O)c1O [LICOCHALCONE D]	99.4
C=CC(C)(C)c1cc(/C=C/C(=O)c2ccc(O)cc2)c(OC)cc1O [LICOAGROCHACONE A]	53.1
COc1cc(O)ccc1/C=C/C(=O)c1ccc(O)cc1 [ECHINATIN]	21.1
CC(C)=CCc1cc(/C=C/C(=O)c2ccc(O)cc2O)ccc1O [LICOAGROCHALCONE A]	175
CC(C)=CCc1cc(/C=C/C(=O)c2ccc(O)cc2O)cc(O)c1O [5'-PRENYLBUTEIN]	104
CC(C)=CCc1cc(/C=C/C(=O)c2ccc(O)c(CC=C(C)C)c2O)ccc1O [KANZONOL C]	135
C=CC(C)(C)c1cc(/C=C/C(=O)c2ccc(O)cc2O)c(OC)cc1O [LICOCHALCONE G]	119

biological target: T1, Neuraminidase; assay: Noncompetitive inhibition of Influenza A H1N1 virus neuraminidase activity by Lineweaver-Burk plot analysis

Compound	IC50 [µM]
COc1c(/C=C/C(=O)c2ccc(O)c(CC=C(C)C)c2)ccc(O)c1O [LICOCHALCONE D]	103
C=CC(C)(C)c1cc(/C=C/C(=O)c2ccc(O)cc2)c(OC)cc1O [LICOAGROCHACONE A]	53.9
COc1cc(O)ccc1/C=C/C(=O)c1ccc(O)cc1 [ECHINATIN]	30.4
CC(C)=CCc1cc(/C=C/C(=O)c2ccc(O)cc2O)ccc1O [LICOAGROCHALCONE A]	185
CC(C)=CCc1cc(/C=C/C(=O)c2ccc(O)cc2O)cc(O)c1O [5'-PRENYLBUTEIN]	96.3
CC(C)=CCc1cc(/C=C/C(=O)c2ccc(O)c(CC=C(C)C)c2O)ccc1O [KANZONOL C]	212
C=CC(C)(C)c1cc(/C=C/C(=O)c2ccc(O)cc2O)c(OC)cc1O [LICOCHALCONE G]	117

biological target: T2, Sialidase (Clostridium perfringens, UniProt P10481); assay: Inhibition of Clostridium perfringens neuraminidase
T2 sequence (P10481 whole entry): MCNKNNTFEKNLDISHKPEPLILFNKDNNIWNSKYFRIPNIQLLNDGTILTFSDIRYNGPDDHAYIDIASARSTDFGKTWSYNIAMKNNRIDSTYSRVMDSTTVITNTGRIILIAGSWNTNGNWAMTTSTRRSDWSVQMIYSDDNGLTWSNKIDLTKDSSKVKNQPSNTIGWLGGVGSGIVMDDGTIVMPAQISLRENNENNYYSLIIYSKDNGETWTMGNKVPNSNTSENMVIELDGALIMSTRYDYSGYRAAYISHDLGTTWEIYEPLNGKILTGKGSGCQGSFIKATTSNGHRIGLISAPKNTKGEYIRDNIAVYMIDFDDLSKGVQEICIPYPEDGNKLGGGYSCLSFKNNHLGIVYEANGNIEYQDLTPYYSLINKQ

Compound	IC50 [µM]
COc1c(/C=C/C(=O)c2ccc(O)c(CC=C(C)C)c2)ccc(O)c1O [LICOCHALCONE D]	3.33
O=C(/C=C/c1ccc(O)cc1)c1ccc(O)cc1O [ISOLIQUIRITIGENIN]	44
C=CC(C)(C)c1cc(/C=C/C(=O)c2ccc(O)cc2)c(OC)cc1O [LICOAGROCHACONE A]	20.4
CC(C)=CCc1cc(/C=C/C(=O)c2ccc(O)cc2O)ccc1O [LICOAGROCHALCONE A]	1.6
CC(C)=CCc1cc(/C=C/C(=O)c2ccc(O)cc2O)cc(O)c1O [5'-PRENYLBUTEIN]	9.25
CC(C)=CCc1cc(/C=C/C(=O)c2ccc(O)c(CC=C(C)C)c2O)ccc1O [KANZONOL C]	1.12
C=CC(C)(C)c1cc(/C=C/C(=O)c2ccc(O)cc2O)c(OC)cc1O [LICOCHALCONE G]	2.37
